Measurements: patent publication US20250312462A1, “PAK1 DEGRADERS AND METHODS OF USE THEREOF” (INSTITUTE FOR CANCER RESEARCH D/B/A THE RESEARCH INSTITUTE …, priority 2022, published 2025)

Experiments:
[1] = molecular target: CSNK2A1 (Homo sapiens, UniProt P68400); experiment: KINOMEscan; details: read-out: Percent Control
Experimental: (§1) The kinase engagement assay (KINOMEscan®) was performed by DiscoverX assessing binding abilities toward a set of kinases.

[2] = molecular target: PAK6 (Homo sapiens, UniProt Q9NQU5); experiment: KINOMEscan; details: read-out: Percent Control
Experimental: as §1

[3] = molecular target: MAP3K4 (Homo sapiens, UniProt Q9Y6R4); experiment: KINOMEscan; details: read-out: Percent Control
Experimental: as §1

[4] = molecular target: RIOK1 (Homo sapiens, UniProt Q9BRS2); experiment: KINOMEscan; details: read-out: Percent Control
RIOK1, sequence (Q9BRS2 whole entry): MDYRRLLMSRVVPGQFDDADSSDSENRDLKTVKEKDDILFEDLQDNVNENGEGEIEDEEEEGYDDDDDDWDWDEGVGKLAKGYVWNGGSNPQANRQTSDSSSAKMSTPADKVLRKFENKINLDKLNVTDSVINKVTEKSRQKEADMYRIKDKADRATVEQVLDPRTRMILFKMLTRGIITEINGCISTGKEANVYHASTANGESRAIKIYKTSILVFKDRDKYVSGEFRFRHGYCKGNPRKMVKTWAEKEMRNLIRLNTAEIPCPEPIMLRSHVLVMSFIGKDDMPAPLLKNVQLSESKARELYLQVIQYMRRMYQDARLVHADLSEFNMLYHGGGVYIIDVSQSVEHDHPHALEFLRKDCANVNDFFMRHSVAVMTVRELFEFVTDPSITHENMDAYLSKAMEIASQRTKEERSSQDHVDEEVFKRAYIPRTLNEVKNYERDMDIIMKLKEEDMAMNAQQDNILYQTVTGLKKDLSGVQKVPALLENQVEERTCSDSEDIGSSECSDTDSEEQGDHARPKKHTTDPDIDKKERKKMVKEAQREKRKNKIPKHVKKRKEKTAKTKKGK
Experimental: as §1

[5] = molecular target: STK36 (Homo sapiens, UniProt Q9NRP7); experiment: KINOMEscan; details: read-out: Percent Control
Experimental: as §1

[6] = molecular target: CDK5 (Homo sapiens, UniProt Q00535); experiment: KINOMEscan; details: read-out: Percent Control
Experimental: as §1

[7] = molecular target: p38-gamma (Homo sapiens, UniProt P53778); experiment: KINOMEscan; details: read-out: Percent Control
Experimental: as §1

[8] = molecular target: TNK1 (Homo sapiens, UniProt Q13470); experiment: KINOMEscan; details: read-out: Percent Control
TNK1, sequence (Q13470 whole entry): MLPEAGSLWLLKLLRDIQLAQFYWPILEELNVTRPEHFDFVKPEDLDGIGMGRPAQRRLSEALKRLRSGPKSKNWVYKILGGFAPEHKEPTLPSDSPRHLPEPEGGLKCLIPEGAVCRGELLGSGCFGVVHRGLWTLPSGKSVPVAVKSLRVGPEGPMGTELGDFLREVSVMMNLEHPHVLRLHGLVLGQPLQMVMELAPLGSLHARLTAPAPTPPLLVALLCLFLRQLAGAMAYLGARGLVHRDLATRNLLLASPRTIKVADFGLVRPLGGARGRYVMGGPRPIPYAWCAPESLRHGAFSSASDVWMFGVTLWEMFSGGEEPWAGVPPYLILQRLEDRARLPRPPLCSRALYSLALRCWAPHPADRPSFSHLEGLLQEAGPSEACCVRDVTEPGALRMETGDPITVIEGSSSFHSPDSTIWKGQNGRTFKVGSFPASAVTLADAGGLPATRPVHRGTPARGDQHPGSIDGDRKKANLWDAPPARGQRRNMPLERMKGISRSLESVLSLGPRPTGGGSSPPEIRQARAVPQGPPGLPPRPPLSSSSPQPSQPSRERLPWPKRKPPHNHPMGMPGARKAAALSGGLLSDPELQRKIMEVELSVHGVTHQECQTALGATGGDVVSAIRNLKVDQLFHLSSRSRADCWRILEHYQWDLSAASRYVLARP
Experimental: as §1

[9] = molecular target: CSK (Homo sapiens, UniProt P41240); experiment: KINOMEscan; details: read-out: Percent Control
Experimental: as §1

[10] = molecular target: BRK (Homo sapiens, UniProt Q13882); experiment: KINOMEscan; details: read-out: Percent Control
BRK, sequence (Q13882 whole entry): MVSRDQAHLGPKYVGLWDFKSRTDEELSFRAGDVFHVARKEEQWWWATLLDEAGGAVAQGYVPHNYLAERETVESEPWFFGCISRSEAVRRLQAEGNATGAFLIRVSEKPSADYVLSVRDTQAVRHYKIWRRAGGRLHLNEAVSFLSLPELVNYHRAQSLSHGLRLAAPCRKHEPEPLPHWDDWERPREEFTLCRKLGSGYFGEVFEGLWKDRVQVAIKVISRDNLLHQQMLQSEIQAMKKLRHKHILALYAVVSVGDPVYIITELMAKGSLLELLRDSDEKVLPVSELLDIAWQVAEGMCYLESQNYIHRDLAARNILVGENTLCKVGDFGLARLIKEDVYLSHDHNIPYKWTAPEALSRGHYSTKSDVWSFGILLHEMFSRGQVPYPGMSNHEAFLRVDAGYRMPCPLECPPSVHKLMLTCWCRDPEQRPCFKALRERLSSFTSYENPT
Experimental: as §1

[11] = molecular target: DYRK1B (Homo sapiens, UniProt Q9Y463); experiment: KINOMEscan; details: read-out: Percent Control
Experimental: as §1

[12] = molecular target: MAP3K15 (Homo sapiens, UniProt Q6ZN16); experiment: KINOMEscan; details: read-out: Percent Control
MAP3K15, sequence (Q6ZN16 whole entry): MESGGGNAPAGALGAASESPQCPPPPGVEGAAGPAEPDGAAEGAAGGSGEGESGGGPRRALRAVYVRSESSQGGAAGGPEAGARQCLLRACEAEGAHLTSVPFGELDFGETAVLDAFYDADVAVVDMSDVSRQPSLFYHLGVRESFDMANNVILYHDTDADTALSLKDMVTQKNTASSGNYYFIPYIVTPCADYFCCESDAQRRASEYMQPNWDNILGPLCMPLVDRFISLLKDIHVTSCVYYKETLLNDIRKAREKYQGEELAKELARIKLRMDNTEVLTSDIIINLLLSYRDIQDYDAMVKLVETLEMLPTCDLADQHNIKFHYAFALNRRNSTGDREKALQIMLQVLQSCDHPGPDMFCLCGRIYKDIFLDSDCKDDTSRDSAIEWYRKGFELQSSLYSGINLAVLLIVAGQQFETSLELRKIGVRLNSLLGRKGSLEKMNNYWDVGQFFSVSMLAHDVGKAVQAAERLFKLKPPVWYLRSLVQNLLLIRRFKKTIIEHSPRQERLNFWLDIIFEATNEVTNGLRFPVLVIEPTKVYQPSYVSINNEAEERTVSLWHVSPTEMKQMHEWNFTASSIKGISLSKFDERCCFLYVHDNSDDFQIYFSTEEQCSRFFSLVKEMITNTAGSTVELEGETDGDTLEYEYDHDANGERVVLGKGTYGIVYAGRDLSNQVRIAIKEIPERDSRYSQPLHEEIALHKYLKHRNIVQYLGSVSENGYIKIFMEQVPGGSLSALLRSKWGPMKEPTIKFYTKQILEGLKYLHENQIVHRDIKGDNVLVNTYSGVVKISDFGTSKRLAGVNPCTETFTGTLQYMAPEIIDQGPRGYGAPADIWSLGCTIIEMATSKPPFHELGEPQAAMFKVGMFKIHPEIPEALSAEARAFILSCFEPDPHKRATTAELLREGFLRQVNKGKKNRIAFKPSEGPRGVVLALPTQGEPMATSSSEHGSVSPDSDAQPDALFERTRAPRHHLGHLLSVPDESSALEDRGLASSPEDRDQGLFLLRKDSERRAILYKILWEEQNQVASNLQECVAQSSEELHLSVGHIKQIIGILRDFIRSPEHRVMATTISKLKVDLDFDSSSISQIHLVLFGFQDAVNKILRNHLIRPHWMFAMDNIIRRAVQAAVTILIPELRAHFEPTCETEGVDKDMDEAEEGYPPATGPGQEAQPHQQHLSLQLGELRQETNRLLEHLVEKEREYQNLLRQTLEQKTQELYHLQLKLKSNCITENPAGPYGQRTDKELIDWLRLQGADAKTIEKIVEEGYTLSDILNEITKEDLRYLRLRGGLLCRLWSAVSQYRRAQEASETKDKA
Experimental: as §1

[13] = molecular target: ERK5 (Homo sapiens, UniProt Q13164); experiment: KINOMEscan; details: read-out: Percent Control
Experimental: as §1

[14] = molecular target: PAK2 (Homo sapiens, UniProt Q13177); experiment: Z'-LYTE FRET kinase inhibition assay; assay type: biochemical; set-up: PAK2 (full length); purchased Invitrogen PV4565
Experimental: The activity/inhibition of human recombinant PAK1 (kinase domain) or PAK2 (full length) was determined by measuring the phosphorylation of a FRET peptide substrate (Ser/Thr19) labeled with Coumarin and Fluorescein using Z′-LYTE™ assay (Invitrogen). The 10 μL assay mixtures contained 50 mM HEPES (pH 7.5), 0.01% Brij-35, 10 mM MgCl2, 1 mM EGTA, 2 μM FRET peptide substrate, and PAK enzyme (20 pM PAK1; 50 pM PAK2). Incubations were carried out at 22° C. in black polypropylene 384-well plates (Corning Costar). Prior to the assay, enzyme, FRET peptide substrate and serially diluted test compounds were preincubated together in assay buffer (7.5 μL) for 10 minutes, and the assay was initiated by the addition of 2.5 μL assay buffer containing 4×ATP (160 μM PAK1; 480 μM PAK2). Following the 60-minute incubation, the assay mixtures were quenched by the addition of 5 μL of Z′-LYTE™ development reagent, and 1 hour later the emissions of Coumarin (445 nm) and Fluorescein (520 nm) were determined after excitation at 400 nm using an Envision plate reader (Perkin Elmer). […].

[15] = molecular target: CASK (Homo sapiens, UniProt O14936); experiment: KINOMEscan; details: read-out: Percent Control
Experimental: as §1

[16] = molecular target: LKB1 (Homo sapiens, UniProt Q15831); experiment: KINOMEscan; details: read-out: Percent Control
Experimental: as §1

[17] = molecular target: ABL1(F317I)-phosphorylated (Homo sapiens, UniProt P00519, F317I); experiment: KINOMEscan; details: read-out: Percent Control
Experimental: as §1

[18] = molecular target: EPHA3 (Homo sapiens, UniProt P29320); experiment: KINOMEscan; details: read-out: Percent Control
Experimental: as §1

[19] = molecular target: HIPK1 (Homo sapiens, UniProt Q86Z02); experiment: KINOMEscan; details: read-out: Percent Control
HIPK1, sequence (Q86Z02 whole entry): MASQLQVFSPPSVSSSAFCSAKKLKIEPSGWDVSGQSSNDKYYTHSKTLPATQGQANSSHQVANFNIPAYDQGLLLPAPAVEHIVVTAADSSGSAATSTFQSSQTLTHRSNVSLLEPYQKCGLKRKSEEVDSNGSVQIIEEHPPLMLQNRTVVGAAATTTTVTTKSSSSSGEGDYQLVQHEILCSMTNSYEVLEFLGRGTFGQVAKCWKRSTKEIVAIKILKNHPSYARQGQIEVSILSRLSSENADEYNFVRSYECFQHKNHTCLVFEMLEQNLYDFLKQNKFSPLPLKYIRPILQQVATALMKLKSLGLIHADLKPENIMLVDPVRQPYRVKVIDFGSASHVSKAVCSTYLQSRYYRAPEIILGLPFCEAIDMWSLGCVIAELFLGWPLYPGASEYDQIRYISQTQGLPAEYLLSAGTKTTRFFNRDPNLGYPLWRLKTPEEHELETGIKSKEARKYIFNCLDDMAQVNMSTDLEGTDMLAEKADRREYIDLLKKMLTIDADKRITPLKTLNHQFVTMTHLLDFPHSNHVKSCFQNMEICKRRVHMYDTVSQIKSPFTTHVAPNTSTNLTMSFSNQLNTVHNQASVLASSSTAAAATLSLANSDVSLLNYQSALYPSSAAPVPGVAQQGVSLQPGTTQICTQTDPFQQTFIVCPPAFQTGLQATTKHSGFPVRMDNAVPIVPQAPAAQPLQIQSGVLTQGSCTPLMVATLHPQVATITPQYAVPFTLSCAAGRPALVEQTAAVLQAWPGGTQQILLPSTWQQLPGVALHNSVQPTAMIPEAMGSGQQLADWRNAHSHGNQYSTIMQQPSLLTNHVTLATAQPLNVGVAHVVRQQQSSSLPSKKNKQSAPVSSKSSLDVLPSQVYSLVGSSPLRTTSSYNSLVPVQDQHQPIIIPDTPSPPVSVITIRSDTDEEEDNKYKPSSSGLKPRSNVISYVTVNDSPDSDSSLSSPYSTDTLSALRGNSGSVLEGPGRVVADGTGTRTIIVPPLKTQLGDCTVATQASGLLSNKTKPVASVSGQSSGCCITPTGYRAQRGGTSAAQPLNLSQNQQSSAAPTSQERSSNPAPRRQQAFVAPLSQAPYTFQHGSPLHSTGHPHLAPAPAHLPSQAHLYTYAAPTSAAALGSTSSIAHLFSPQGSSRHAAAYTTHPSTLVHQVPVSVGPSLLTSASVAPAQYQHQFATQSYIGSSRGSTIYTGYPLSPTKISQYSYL
Experimental: as §1

[20] = molecular target: BRSK1 (Homo sapiens, UniProt Q8TDC3); experiment: KINOMEscan; details: read-out: Percent Control
Experimental: as §1

[21] = molecular target: DRAK1 (Homo sapiens, UniProt Q9UEE5); experiment: KINOMEscan; details: read-out: Percent Control
Experimental: as §1

[22] = molecular target: FGFR1 (Homo sapiens, UniProt P11362); experiment: KINOMEscan; details: read-out: Percent Control
Experimental: as §1

[23] = molecular target: CDK4-cyclinD3 (Homo sapiens, UniProt P11802); experiment: KINOMEscan; details: read-out: Percent Control
Experimental: as §1

[24] = molecular target: WNK4 (Homo sapiens, UniProt Q96J92); experiment: KINOMEscan; details: read-out: Percent Control
Experimental: as §1

[25] = molecular target: JAK2(JH1domain-catalytic) (Homo sapiens, UniProt O60674); experiment: KINOMEscan; details: read-out: Percent Control
JAK2(JH1domain-catalytic), sequence (O60674 849-1124 limits assumed): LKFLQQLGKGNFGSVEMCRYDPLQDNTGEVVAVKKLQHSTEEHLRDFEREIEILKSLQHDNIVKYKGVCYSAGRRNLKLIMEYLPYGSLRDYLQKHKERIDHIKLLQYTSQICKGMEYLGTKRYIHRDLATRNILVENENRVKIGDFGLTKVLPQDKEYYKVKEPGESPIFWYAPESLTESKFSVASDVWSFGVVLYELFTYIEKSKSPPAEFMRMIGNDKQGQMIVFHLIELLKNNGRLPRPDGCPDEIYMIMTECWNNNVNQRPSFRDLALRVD
Experimental: as §1

[26] = molecular target: TEC (Homo sapiens, UniProt P42680); experiment: KINOMEscan; details: read-out: Percent Control
Experimental: as §1

[27] = molecular target: CLK4 (Homo sapiens, UniProt Q9HAZ1); experiment: KINOMEscan; details: read-out: Percent Control
Experimental: as §1

[28] = molecular target: MEK2 (Homo sapiens, UniProt P36507); experiment: KINOMEscan; details: read-out: Percent Control
Experimental: as §1

[29] = molecular target: EGFR(L747-E749del, A750P) (Homo sapiens, UniProt P00533, A750P/DEL747-749); experiment: KINOMEscan; details: read-out: Percent Control
Experimental: as §1

[30] = molecular target: GSK3B (Homo sapiens, UniProt P49841); experiment: KINOMEscan; details: read-out: Percent Control
Experimental: as §1

[31] = molecular target: CAMKK1 (Homo sapiens, UniProt Q8N5S9); experiment: KINOMEscan; details: read-out: Percent Control
CAMKK1, sequence (Q8N5S9 whole entry): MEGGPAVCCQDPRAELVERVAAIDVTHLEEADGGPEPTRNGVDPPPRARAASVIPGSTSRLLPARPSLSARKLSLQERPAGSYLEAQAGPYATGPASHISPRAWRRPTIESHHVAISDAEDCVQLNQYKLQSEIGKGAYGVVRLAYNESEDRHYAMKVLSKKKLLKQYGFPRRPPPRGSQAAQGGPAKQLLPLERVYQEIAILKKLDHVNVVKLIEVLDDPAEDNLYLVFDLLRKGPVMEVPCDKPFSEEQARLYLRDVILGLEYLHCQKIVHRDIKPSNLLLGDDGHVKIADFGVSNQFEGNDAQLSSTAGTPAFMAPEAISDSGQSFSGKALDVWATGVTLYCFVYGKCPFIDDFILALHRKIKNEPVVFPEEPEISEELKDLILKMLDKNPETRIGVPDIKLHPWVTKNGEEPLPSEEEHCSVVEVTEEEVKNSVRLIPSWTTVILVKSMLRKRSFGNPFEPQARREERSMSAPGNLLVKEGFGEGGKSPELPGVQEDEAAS
Experimental: as §1

[32] = molecular target: MST1R (Homo sapiens, UniProt Q04912); experiment: KINOMEscan; details: read-out: Percent Control
Experimental: as §1

O=C1CCC(N2C(=O)c3cccc(NCCCCCCCCNC(=O)N4CC[C@H](NC5=Nc6cc(F)ccc6N(CC(F)F)c6ccc(Cl)cc65)C4)c3C2=O)C(=O)N1 (stereo partly drawn) [BJG-05-039, (3S)-3-((2-Chloro-5-(2,2-difluoroethyl)-8-fluoro-5H-dibenzo[b,e][1,4]diazepin-11-yl)amino)-N-(8-((2-(2,6-dioxopiperidin-3-yl)-1,3-dioxoisoindolin-4-yl)amino)octyl)pyrrolidine-1-carboxamide]
remaining binding at 10 µM [1]: 96%
remaining binding at 10 µM [2]: 99%
remaining binding at 10 µM [3]: 95%
remaining binding at 10 µM [4]: 84%
remaining binding at 10 µM [5]: 82%
remaining binding at 10 µM [6]: 90%
remaining binding at 10 µM [7]: 99%
remaining binding at 10 µM [8]: 83%
remaining binding at 10 µM [9]: 74%
remaining binding at 10 µM [10]: 72%
remaining binding at 10 µM [11]: 100%
remaining binding at 10 µM [12]: 99%
remaining binding at 10 µM [13]: 57%
IC50 [14]: > 10 µM
remaining binding at 10 µM [15]: 99%
remaining binding at 10 µM [16]: 89%
remaining binding at 10 µM [17]: 100%
remaining binding at 10 µM [18]: 47%
remaining binding at 10 µM [19]: 100%
remaining binding at 10 µM [20]: 51%
remaining binding at 10 µM [21]: 59%
remaining binding at 10 µM [22]: 97%
remaining binding at 10 µM [23]: 100%
remaining binding at 10 µM [24]: 77%
remaining binding at 10 µM [25]: 99%
remaining binding at 10 µM [26]: 82%
remaining binding at 10 µM [27]: 100%
remaining binding at 10 µM [28]: 96%
remaining binding at 10 µM [29]: 78%
remaining binding at 10 µM [30]: 90%
remaining binding at 10 µM [31]: 52%
remaining binding at 10 µM [32]: 97%
